Publication PMC7587356, “High-Throughput Screening for Inhibitors of the SARS-CoV-2 Protease Using a FRET-Biosensor” (Molecules, 2020)
Structures can show the parent of a compound that is named as a salt. Where two headings read alike, the source gives them in different places.

Molecular target: SARS-CoV-2 3CLpro (Severe acute respiratory syndrome coronavirus 2, UniProt P0DTD1)
Assay: biochemical
Type: biochemical
Design: Replicate_1 / Replicate_2 / mean / mean (LOPAC_screen_w_protease): unit not given here
Conditions: for inhibition at 5 µM: 4 h
[1] = LOPAC1280 primary screen with protease, 5 µM compound, replicate 1, read-out: Replicate_1 (LOPAC_screen_w_protease)
[2] = LOPAC1280 primary screen with protease, 5 µM compound, replicate 2, read-out: Replicate_2 (LOPAC_screen_w_protease)
[3] = LOPAC1280 primary screen with protease, 5 µM compound, mean of the two replicates
[4] = sheet LOPAC_screen_w_protease, primary screen with protease, compound at 5 µM, mean of two replicates, read-out: mean
[5] = sheet LOPAC_screen_w_protease, primary screen with protease, compound at 5 µM, replicate 1, read-out: Replicate_1
[6] = sheet LOPAC_screen_w_protease, primary screen with protease, compound at 5 µM, replicate 2, read-out: Replicate_2
[7] = sheet LOPAC_screen_w_protease, primary screen of LOPAC1280 at 5 µM with protease, mean of the two replicates, read-out: mean
[8] = sheet LOPAC_screen_w_protease, primary screen of LOPAC1280 at 5 µM with protease, replicate 1, read-out: Replicate_1
[9] = sheet LOPAC_screen_w_protease, primary screen of LOPAC1280 at 5 µM with protease, replicate 2, read-out: Replicate_2
[10] = sheet LOPAC_screen_w_protease, primary screen with protease, 5 µM, mean of two replicates
[11] = sheet LOPAC_screen_w_protease, primary screen with protease, 5 µM, replicate 1
[12] = sheet LOPAC_screen_w_protease, primary screen with protease, 5 µM, replicate 2
[13] = sheet LOPAC_screen_w_protease, primary screen with protease, 5 µM, mean of two replicates, read-out: mean
[14] = sheet LOPAC_screen_w_protease, primary screen with protease, 5 µM, replicate 1, read-out: Replicate_1
[15] = sheet LOPAC_screen_w_protease, primary screen with protease, 5 µM, replicate 2, read-out: Replicate_2
[16] = sheet LOPAC_screen_w_protease, LOPAC1280 primary screen at 5 µM, with protease, mean of the two replicates
[17] = sheet LOPAC_screen_w_protease, LOPAC1280 primary screen at 5 µM, with protease, replicate 1
[18] = sheet LOPAC_screen_w_protease, LOPAC1280 primary screen at 5 µM, with protease, replicate 2
[19] = sheet LOPAC_screen_w_protease, LOPAC1280 primary screen with protease, 5 µM compound, mean of the two replicates, read-out: mean
[20] = sheet LOPAC_screen_w_protease, LOPAC1280 primary screen with protease, 5 µM compound, replicate 1, read-out: Replicate_1
[21] = sheet LOPAC_screen_w_protease, LOPAC1280 primary screen with protease, 5 µM compound, replicate 2, read-out: Replicate_2
[22] = LOPAC1280 primary screen with protease, 5 µM compound, replicate 1
[23] = LOPAC1280 primary screen with protease, 5 µM compound, replicate 2

SMILES: Cc1ccc(C(=O)Nc2ccc(S(=O)(=O)O)c3cc(S(=O)(=O)O)cc(S(=O)(=O)O)c23)cc1NC(=O)c1cccc(NC(=O)Nc2cccc(C(=O)Nc3cc(C(=O)Nc4ccc(S(=O)(=O)O)c5cc(S(=O)(=O)O)cc(S(=O)(=O)O)c45)ccc3C)c2)c1 [Suramin hexasodium]
- inhibition at 5 µM (sheet LOPAC_screen_w_protease, LOPAC1280 at 5 µM, mean of two replicates, read-out: mean): 1.22%
- inhibition at 5 µM (sheet LOPAC_screen_w_protease, LOPAC1280 at 5 µM, replicate 1, read-out: Replicate_1): 2.66%
- inhibition at 5 µM (sheet LOPAC_screen_w_protease, LOPAC1280 at 5 µM, replicate 2, read-out: Replicate_2): -0.222%

SMILES: O=C(O)CN(CCOCCOCCN(CC(=O)O)CC(=O)O)CC(=O)O
- Replicate_1: 4.424
- Replicate_2: 0.4872
- mean: 2.456

SMILES: CN(C)CCOC(c1ccccc1)c1ccccc1 [Diphenhydramine hydrochloride]
- inhibition at 5 µM [1]: 2.14%
- inhibition at 5 µM [2]: 1.54%
- mean (LOPAC_screen_w_protease) [3]: 1.841

SMILES: O=c1[nH]c2ccccc2n1C1CCN(CCCC(c2ccc(F)cc2)c2ccc(F)cc2)CC1 [Pimozide]
- inhibition at 5 µM [4]: 2.77%
- inhibition at 5 µM [5]: 3.25%
- inhibition at 5 µM [6]: 2.29%

SMILES: CC1=C(/C=C/C(C)=C/C=C/C(C)=C/C=C/C=C(C)/C=C/C=C(C)/C=C/C2=C(C)C(=O)[C@@H](O)CC2(C)C)C(C)(C)C[C@H](O)C1=O [Astaxanthin]
- inhibition at 5 µM [7]: 3.4%
- inhibition at 5 µM [8]: 2.58%
- inhibition at 5 µM [9]: 4.22%

SMILES: CC(C)C[C@H](NP(=O)([O-])O[C@H]1O[C@H](C)[C@@H](O)[C@H](O)[C@@H]1O)C(=O)N[C@@H](Cc1c[nH]c2ccccc12)C(=O)[O-].[Na+].[Na+] [Phosphoramidon disodium]
- mean [10]: 0.1697
- Replicate_1 [11]: 0.5227
- Replicate_2 [12]: -0.1832

SMILES: Nc1ccc2c3c(cccc13)C(=O)NC2=O [4-Amino-1,8-naphthalimide]
- mean (LOPAC screen with protease) (sheet LOPAC_screen_w_protease, primary screen at 5 µM, mean of two replicates): 6.555
- Replicate_1 (LOPAC screen with protease) (sheet LOPAC_screen_w_protease, primary screen at 5 µM, replicate 1): 8.124
- Replicate_2 (LOPAC screen with protease) (sheet LOPAC_screen_w_protease, primary screen at 5 µM, replicate 2): 4.986

SMILES: Nc1nc(N)c2nc(-c3ccccc3)c(N)nc2n1 [Triamterene]
- inhibition at 5 µM [13]: -0.222%
- inhibition at 5 µM [14]: 2.19%
- inhibition at 5 µM [15]: -2.63%

SMILES: CN1C(C(=O)Nc2ccccn2)=C(O)c2ccccc2S1(=O)=O [Piroxicam]
- inhibition at 5 µM [4]: 3.01%
- inhibition at 5 µM [5]: 1.9%
- inhibition at 5 µM [6]: 4.12%

SMILES: COc1ccccc1CNCCCCCCNCCCCCCCCNCCCCCCNCc1ccccc1OC.Cl.Cl.Cl.Cl [Methoctramine tetrahydrochloride]
- mean (sheet LOPAC_screen_w_protease, primary screen of LOPAC1280 at 5 µM with protease, mean of the two replicates): 4.069
- Replicate_1 (sheet LOPAC_screen_w_protease, primary screen of LOPAC1280 at 5 µM with protease, replicate 1): 5.6561
- Replicate_2 (sheet LOPAC_screen_w_protease, primary screen of LOPAC1280 at 5 µM with protease, replicate 2): 2.482

SMILES: CCC1(c2ccc(N)cc2)CCC(=O)NC1=O (racemic) [(±)-p-Aminoglutethimide]
- mean (sheet LOPAC_screen_w_protease, primary screen with protease, mean of two replicates): 2.443
- Replicate_1 (sheet LOPAC_screen_w_protease, primary screen with protease, replicate 1): 1.25
- Replicate_2 (sheet LOPAC_screen_w_protease, primary screen with protease, replicate 2): 3.637

SMILES: O=S(=O)(c1cccc2cnccc12)N1CCNCC1 [HA-100]
- mean [16]: 0.7375
- Replicate_1 [17]: 1.4906
- Replicate_2 [18]: -0.01568

SMILES: CC(C)NCC(O)c1cc(O)cc(O)c1.CC(C)NCC(O)c1cc(O)cc(O)c1.O=S(=O)(O)O (stereo not drawn) [Metaproterenol hemisulfate]
- mean (sheet LOPAC_screen_w_protease, LOPAC1280 primary screen with protease, 5 µM compound, mean of the two replicates): 4.319
- Replicate_1 (sheet LOPAC_screen_w_protease, LOPAC1280 primary screen with protease, 5 µM compound, replicate 1): 2.0521
- Replicate_2 (sheet LOPAC_screen_w_protease, LOPAC1280 primary screen with protease, 5 µM compound, replicate 2): 6.586

SMILES: N=C(NCCC[C@H](N)C(=O)O)N[N+](=O)[O-] [NG-Nitro-L-arginine]
- inhibition at 5 µM [7]: 3.68%
- inhibition at 5 µM [8]: 2.33%
- inhibition at 5 µM [9]: 5.04%

SMILES: CC(C)NP(=O)(NC(C)C)OP(=O)(NC(C)C)NC(C)C [Tetraisopropyl pyrophosphoramide]
- inhibition at 5 µM (read-out: Replicate_1): 1.18%
- inhibition at 5 µM (read-out: Replicate_2): -0.275%
- inhibition at 5 µM (read-out: mean): 0.452%

SMILES: O=C(CCCN1CCC(O)(c2ccc(Cl)cc2)CC1)c1ccc(F)cc1 [Haloperidol]
- inhibition at 5 µM [1]: 2.99%
- inhibition at 5 µM [2]: 0.623%
- mean (LOPAC_screen_w_protease) [3]: 1.809

SMILES: O=C(NCCNCC(O)COc1ccc(O)cc1)N1CCOCC1 (stereo not drawn) [Xamoterol hemifumarate]
- inhibition at 5 µM (sheet LOPAC_screen_w_protease, LOPAC1280 primary screen at 5 µM, with protease, mean of the two replicates, read-out: mean): 0.551%
- inhibition at 5 µM (sheet LOPAC_screen_w_protease, LOPAC1280 primary screen at 5 µM, with protease, replicate 1, read-out: Replicate_1): 1.09%
- inhibition at 5 µM (sheet LOPAC_screen_w_protease, LOPAC1280 primary screen at 5 µM, with protease, replicate 2, read-out: Replicate_2): 0.0143%

SMILES: CCOC(=O)C1=C(C)NC(=S)NC1c1cccc(O)c1 (stereo not drawn) [Monastrol]
- inhibition at 5 µM [19]: 6.04%
- inhibition at 5 µM [20]: 5.54%
- inhibition at 5 µM [21]: 6.55%

SMILES: COc1ccc2[nH]cc(CCN)c2c1.Cl [O-Methylserotonin hydrochloride]
- mean (LOPAC_screen_w_protease) [3]: 2.11
- Replicate_1 (LOPAC_screen_w_protease) [22]: 3.3171
- Replicate_2 (LOPAC_screen_w_protease) [23]: 0.9034

SMILES: CC[N+](CC)(CC)CC [Tetraethylammonium chloride]
- inhibition at 5 µM (read-out: Replicate_1): 2.25%
- inhibition at 5 µM (read-out: Replicate_2): -1.51%
- inhibition at 5 µM (read-out: mean): 0.374%

SMILES: O=C1N(c2ccccc2)c2ccccc2C1(Cc1ccncc1)Cc1ccncc1 [Linopirdine]
- inhibition at 5 µM [19]: 4.8%
- inhibition at 5 µM [20]: 4.31%
- inhibition at 5 µM [21]: 5.29%

SMILES: N=C(N)NC(=O)Cc1c(Cl)cccc1Cl [Guanfacine hydrochloride]
- inhibition at 5 µM [4]: 2.62%
- inhibition at 5 µM [5]: 3.74%
- inhibition at 5 µM [6]: 1.51%

SMILES: CC(C)C(=O)Nc1ccc([N+](=O)[O-])c(C(F)(F)F)c1 [Flutamide]
- inhibition at 5 µM [13]: 0.293%
- inhibition at 5 µM [14]: 2.71%
- inhibition at 5 µM [15]: -2.13%

SMILES: CC[C@]1(O)C[C@@H]2CN(CCc3c([nH]c4ccccc34)[C@@](C(=O)OC)(c3cc4c(cc3OC)N(C)[C@H]3[C@@](O)(C(=O)OC)[C@H](OC(C)=O)[C@]5(CC)C=CCN6CC[C@]43[C@@H]65)C2)C1.O=S(=O)(O)O [Vinblastine sulfate salt]
- mean [10]: 0.3705
- Replicate_1 [11]: 2.018
- Replicate_2 [12]: -1.277

SMILES: O=C(O)/C=C\C(=O)O.c1cnc(N2CCN(Cc3ccc4c(c3)OCO4)CC2)nc1 [Piribedil maleate]
- mean [16]: 0.4342
- Replicate_1 [17]: -0.05723
- Replicate_2 [18]: 0.9256

SMILES: NS(=O)(=O)c1cc2c(cc1Cl)NCNS2(=O)=O [Hydrochlorothiazide]
- inhibition at 5 µM (sheet LOPAC_screen_w_protease, primary screen with protease, mean of two replicates, read-out: mean): 2.22%
- inhibition at 5 µM (sheet LOPAC_screen_w_protease, primary screen with protease, replicate 1, read-out: Replicate_1): 3.63%
- inhibition at 5 µM (sheet LOPAC_screen_w_protease, primary screen with protease, replicate 2, read-out: Replicate_2): 0.799%

SMILES: CC[N+](CC)(CC)CCOc1cccc(OCC[N+](CC)(CC)CC)c1OCC[N+](CC)(CC)CC [Gallamine triethiodide]
- inhibition at 5 µM (sheet LOPAC_screen_w_protease, primary screen at 5 µM, mean of two replicates, read-out: mean (LOPAC screen with protease)): 11.3%
- inhibition at 5 µM (sheet LOPAC_screen_w_protease, primary screen at 5 µM, replicate 1, read-out: Replicate_1 (LOPAC screen with protease)): 12.1%
- inhibition at 5 µM (sheet LOPAC_screen_w_protease, primary screen at 5 µM, replicate 2, read-out: Replicate_2 (LOPAC screen with protease)): 10.6%

SMILES: O.c1cnc2c(c1)ccc1cccnc12 [1,10-Phenanthroline monohydrate]
- mean [10]: 0.3766
- Replicate_1 [11]: -0.05956
- Replicate_2 [12]: 0.8127

SMILES: NC(=O)CN1CC(O)CC1=O (stereo not drawn) [Oxiracetam]
- inhibition at 5 µM [7]: 3.68%
- inhibition at 5 µM [8]: 3.64%
- inhibition at 5 µM [9]: 3.71%

SMILES: COc1cc(OC)c(C=C2C(O)=Nc3ccccc32)c(OC)c1 [IC 261]
- inhibition at 5 µM [1]: 1.63%
- inhibition at 5 µM [2]: 1.3%
- mean (LOPAC_screen_w_protease) (LOPAC1280 primary screen with protease, 5 µM compound, mean of two replicates): 1.465

SMILES: N[C@@H]1C[C@H]1c1ccccc1 [Tranylcypromine hydrochloride]
- Replicate_1: 0.4955
- Replicate_2: 0.8775
- mean: 0.6865

SMILES: Cc1nc(N=Nc2ccc(C(=O)O)cc2)c(COP(=O)(O)O)c(C=O)c1O [MRS 2159]
- mean (LOPAC_screen_w_protease) [3]: 1.803
- Replicate_1 (LOPAC_screen_w_protease) [22]: 1.948
- Replicate_2 (LOPAC_screen_w_protease) [23]: 1.658
